According to patent US10906876B2, “Tetrahydroisoquinolines as selective NADPH oxidase 2 inhibitors” (University of Pittsburgh—Of the Commonwealth System of …, priority 2013, dated 2021):

Key:
Nox2 [1] = target: T1, Nox2 (Homo sapiens, UniProt P04839); experiment: ROS (superoxide) generation in whole COS-Nox2 cells, L-012 chemiluminescence; assay type: cell-based; details: whole COS-Nox2 cells stimulated with 5 μM PMA
T1 construct: expressed in transfected cells
T1 sequence (P04839 2-570 limits assumed): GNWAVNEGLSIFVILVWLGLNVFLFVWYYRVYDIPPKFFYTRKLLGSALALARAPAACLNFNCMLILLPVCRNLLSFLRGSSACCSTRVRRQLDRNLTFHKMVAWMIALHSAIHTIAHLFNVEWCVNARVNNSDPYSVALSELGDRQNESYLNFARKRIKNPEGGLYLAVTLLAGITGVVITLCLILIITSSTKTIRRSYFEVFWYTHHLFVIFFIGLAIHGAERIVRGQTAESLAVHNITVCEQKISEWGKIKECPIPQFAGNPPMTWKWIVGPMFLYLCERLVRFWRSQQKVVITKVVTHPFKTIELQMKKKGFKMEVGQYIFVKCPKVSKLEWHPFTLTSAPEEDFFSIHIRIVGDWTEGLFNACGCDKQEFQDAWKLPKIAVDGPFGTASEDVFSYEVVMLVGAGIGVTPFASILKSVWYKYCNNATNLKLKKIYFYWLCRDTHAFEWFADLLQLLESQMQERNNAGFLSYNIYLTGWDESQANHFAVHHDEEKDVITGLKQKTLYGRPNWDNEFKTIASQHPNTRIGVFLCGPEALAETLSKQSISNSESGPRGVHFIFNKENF
Source text: (§1) All cell culture reagents were obtained from Invitrogen, unless indicated. COS-22 (COS-7 cells stably expressing human p22^phox) and COS-Nox2 (a.k.a. COS-phox) cells (COS-7 cells stably expressing human p22^phox, Nox2, p47^phox and p67^phox) were kindly provided by Dr. Mary C. Dinauer (Indiana University, School of Medicine) (Price et al., Blood, 2002, 99:2653-2661). COS-22 cells were maintained in Dulbecco's Modified Eagle Medium (DMEM) with 4.5 g/L glucose, L-glutamine and sodium pyruvate containing 10% heat-inactivated fetal bovine serum (FBS), 100 units/ml penicillin and 100 μg/ml streptomycin (complete media) supplemented with 1.8 mg/ml G418 (Calbiochem/EMB Bioscience, Gibbstown, N.J.). COS-Nox2 cells were maintained in complete media supplemented with 1.8 mg/mL G418, 1 μg/mL puromycin (Sigma, St Louis, Mo.) and 0.2 mg/mL hygromycin B (Invitrogen, Carlsbad, Calif.). HEK-Nox5 cells were kindly provided by Dr. David Fulton (Georgia Health Sciences University) and maintained in complete media.
COS-Nox2, COS-Nox1/NOXO1/NOXA1, HEK-Nox5 and COS-22 cells were re-plated in OPTIMEM into 384-well white micro-plates (Greiner-Bio One GmbH, Germany) at a density of 2.5×10^3 cells/well for COS-Nox2 and 5×10^4 cells/well for all others. The cells were incubated at 37° C. in PBS containing […] L-012 for 10 min. Reaction was initiated by addition of 5 μM PMA in the case of Nox2 or 1 μM PMA/0.1 μM Ionomycin in the case of Nox5. Since Nox1 was constitutively active, Nox1-derived O2^•− was assessed by comparison to non-transfected cells (Cos22). Luminescence was quantified over time using a Biotek Synergy 4 Hybrid Multi-Mode Microplate Reader. The specificity of L-012 for O2^•− was confirmed by the addition of SOD (150 U/mL).
(§2) All data are expressed as means±SEM. IC50 values were determined using the GraphPad Prism software (GraphPad Software, San Diego, Calif.) for non-linear regression three-parameters, with constrain values of 100 and 0 for top and bottom, respectively, and assumes a Hill slope of 1.
Heterologous Nox1, 2, 4, and 5 cell systems were used as a testing paradigm to identify a probe molecule that inhibits Nox2 selectively over Nox1, 4, and 5. An acceptable probe would also show a lack of activity against XO, which also produces ROS. The latter screen would serve two purposes: (1) to eliminate drugs that inhibit an oxidase of distinct composition; and (2) to preclude agents that directly scavenge ROS. A cell-based primary assay using stable Nox2-transfected COS cells (Price et al., Blood 2002, 99:2653-2661) with L-012 chemiluminescence (Daiber et al., Free Radic. Biol. Med. 2004, 36:101-111) was used as a detection system for O2^•−-generation.

Nox2 [2] = target: T1, Nox2; experiment: ROS (H2O2) generation in whole COS-Nox2 cells, Amplex Red assay; assay type: cell-based
Source text: as §1
H2O2 production was quantified in intact COS-Nox4 cells by Amplex® Red. Briefly, COS-Nox4 cells (5×10^4 cells/ml) were re-plated into 384-well plate in assay buffer (25 mM Hepes, pH 7.4, containing 0.12 M NaCl, 3 mM KCl, 1 mM MgCl2). The cells were incubated in the presence or absence of drugs at 37° C. in assay buffer supplemented with 0.1 mM Amplex® Red, and 0.32 U/ml of horse radish peroxidase (HRP) for 15 min. Fluorescence measurements were made using a Biotek Synergy 4 Hybrid Multi-Mode Microplate Reader with a 530/25-excitation and a 590/35-emission filter. The reaction was monitored at 37° C. for 1 h. A standard curve of known H2O2 concentrations was included on each plate. Nox4 activity was obtained by calculating the rate of H2O2 production as RFU/min and then subtracting the equivalent value given by non-transfected COS-22 cells. Similarly, H2O2 production by Nox2 cells was also measured by Amplex® Red as described above but in the presence of 150 U/mL of SOD and the reaction was initiated by addition of 5 μM PMA. The rate of H2O2 production in this case was calculated as RFU/min after the subtraction of the equivalent value given by non-stimulated cells. Data are expressed as % of vehicle control.
as §2

Bovine milk XO = target: T2, Bovine milk XO (Bos taurus, UniProt P80457); experiment: Xanthine oxidase assay (Amplex Red); assay type: biochemical; details: compounds at 25 μM and 50 μM (FIG. 4)
T2 construct: Bovine milk XO (grade 1, ammonium sulfate suspension; Sigma-Aldrich); purchased Sigma-Aldrich; host or cells: bovine milk
T2 sequence (P80457 whole entry): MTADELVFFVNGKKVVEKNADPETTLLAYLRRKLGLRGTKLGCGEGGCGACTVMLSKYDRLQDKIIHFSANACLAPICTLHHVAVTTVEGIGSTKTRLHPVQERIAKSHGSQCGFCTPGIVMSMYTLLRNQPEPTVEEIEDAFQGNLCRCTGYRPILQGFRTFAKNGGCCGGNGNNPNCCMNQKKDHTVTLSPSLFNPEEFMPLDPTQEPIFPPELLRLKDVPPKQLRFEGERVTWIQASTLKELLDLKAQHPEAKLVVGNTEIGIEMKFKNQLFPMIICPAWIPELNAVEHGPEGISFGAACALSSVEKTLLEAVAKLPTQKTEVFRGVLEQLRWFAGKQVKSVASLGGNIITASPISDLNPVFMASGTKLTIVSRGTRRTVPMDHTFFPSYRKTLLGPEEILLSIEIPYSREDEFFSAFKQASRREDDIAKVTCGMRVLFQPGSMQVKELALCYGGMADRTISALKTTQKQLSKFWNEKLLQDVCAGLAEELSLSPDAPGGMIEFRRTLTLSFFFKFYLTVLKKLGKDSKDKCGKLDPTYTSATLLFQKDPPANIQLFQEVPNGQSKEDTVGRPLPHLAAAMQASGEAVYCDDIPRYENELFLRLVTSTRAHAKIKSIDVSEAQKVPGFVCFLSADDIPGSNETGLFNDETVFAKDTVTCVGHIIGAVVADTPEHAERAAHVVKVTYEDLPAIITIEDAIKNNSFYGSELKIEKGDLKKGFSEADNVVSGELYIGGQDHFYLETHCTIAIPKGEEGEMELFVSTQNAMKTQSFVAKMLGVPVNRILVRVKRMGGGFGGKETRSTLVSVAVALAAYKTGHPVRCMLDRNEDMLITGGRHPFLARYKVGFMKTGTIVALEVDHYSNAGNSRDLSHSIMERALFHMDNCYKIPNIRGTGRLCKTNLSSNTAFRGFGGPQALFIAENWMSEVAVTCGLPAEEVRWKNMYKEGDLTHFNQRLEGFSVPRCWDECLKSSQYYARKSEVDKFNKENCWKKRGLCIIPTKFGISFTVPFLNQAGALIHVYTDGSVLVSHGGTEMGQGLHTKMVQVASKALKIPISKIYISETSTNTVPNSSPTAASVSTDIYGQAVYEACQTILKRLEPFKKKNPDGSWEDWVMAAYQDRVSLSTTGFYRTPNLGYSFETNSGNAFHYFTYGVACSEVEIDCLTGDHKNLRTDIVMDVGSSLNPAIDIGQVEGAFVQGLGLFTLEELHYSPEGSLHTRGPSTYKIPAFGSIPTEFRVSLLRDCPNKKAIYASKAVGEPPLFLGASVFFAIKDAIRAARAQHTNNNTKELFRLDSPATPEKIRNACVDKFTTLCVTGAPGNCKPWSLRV
Description: Bovine milk XO (grade 1, ammonium sulfate suspension; Sigma-Aldrich) was first desalted using PD-10 columns (Sephadex G-25, GE Healthcare Biosciences, Piscataway, N.J.) equilibrated in PBS. XO activity was assayed by measuring H2O2 production using the Amplex® Red assay. Reaction mixture contained: 0.02 U/mL XO, 25 mM Hepes, pH 7.4, containing 0.12 M NaCl, 3 mM KCl, 1 mM MgCl2, 0.1 mM Amplex® Red, and 0.32 U/mL of horse radish peroxidase (HRP), reaction was initiated by addition of 1 mM hypoxanthine. Fluorescence was quantified over time using a Biotek Synergy 4 Hybrid Multi-Mode Microplate Reader.
Data are expressed as % of vehicle control.

With `C=C(C)CC1NC2CC(C)(C)C1c1c(-c3cccnc3)cccc12` (racemic) [Compound 12d, (±)-(1S,4R,9S)-3,3-Dimethyl-9-(2-methylallyl)-5-(pyridin-3-yl)-1,2,3,4-tetrahydro-1,4-(epimino-methano)naphthalene] the IC50 (Nox2 [1]) was over 100 µM, the “Nox2 inhibitory activity” value (Nox2 [2]; Table 2) was “inactive” and the IC50 (Nox2 [2]; whole COS-Nox2 cells stimulated with 5 μM PMA, Amplex Red) was over 100 µM.
With `c1ccc2c(c1)[I+]c1ccccc1-2` [DPI, reference compound] the “Effect on ROS production by xanthine oxidase” value (Bovine milk XO) was “complete inhibition”.
